Counter-ions that a name gives are not always drawn. One block for each compound: values may come before it.
How the values were obtained:
rats [1] = test: Diuretic activity, method of Lipschitz et coll.; type: in vivo; settings: oral administration of 20 mg/kg
Experimental: Besides their advantage in curative and preventive therapy of complications from diabetes, the products, which are the object of this invention, are also useful as diuretics. Thus, product COR35 07, tested in rats according to the method of Lipschitz et coll.(J. Pharm. Exp. Therap., 1943, 79, 97-110), results in an increase in urinary excretion of sodium (natruria was multiplied by 2.6 after oral administration of 20 mg/kg).

aldose reductase = biological target: T1, aldose reductase (Bos taurus, UniProt P16116); test: Inhibition of aldose reductase in vitro (reduction of glyceraldehyde to glycerol, spectrophotometric NADPH determination); type: biochemical; settings: enzyme from beef crystalline lens; substrate glyceraldehyde; read-out: log 1/CI50 (CI50 = concentration in mole/l resulting in 50% inhibition of the enzymatic activity) (converted)
T1 construct: The enzyme is extracted from beef crystalline lens; from tissue; host or cells: beef crystalline lens
Experimental: The enzyme is extracted from beef crystalline lens by the method described by Hayman S. and Kinoshita J. H. (J. Biol Chem., 1965, 240, 2,877). The percentage of inhibition of the capacity of the enzyme to reduce glyceraldehyde to glycerol under the effect of the product to be tested is determined by the spectrophotometric determination of the amount of NADPH reacting according to the method described by Hayman and Kinoshita. We give below in parentheses after each product the value of the log 1/CI50 where CI50 represents the concentration expressed in mole/l resulting in 50% inhibition of the enzymatic activity: COR 19 85 (4.9); COR 19 91 (5.5); COR 19 93 (5.1); COR 19 94 (5.2); COR 19 99 (5.4); COR 35 01 (6.9); COR 35 02 (5.15); COR 35 07 (6.3); COR 35 09 (5.7); COR 35 11 (5.9); COR 35 19 (5.8); COR 35 22 (5.2).

mice = test: Toxicity in mice; type: in vivo; settings: for LD0: orally
Toxicity in mice = type: in vivo; settings: mouse, in vivo
rats [2] = test: Neuropathy with streptozotocin: sorbitol and inositol levels in sciatic nerves, glycemia; type: in vivo; settings: 100 mg/kg/d
Experimental: Four batches of 10 rats weighing about 200 g were treated from D-2 to D+3 with a gummy julep of the product to be tested. On D O the animals received an i.p. injection of 100 mg/kg of streptozotocin dissolved in a citrate buffer. The glycemia of the rats was determined 24 hours and 3 days after injection of the streptozotocin and the sciatic nerves were removed to determine the sorbitol and inositol levels. […] COR 35 01 had no effect on the glycemia of the animals.

rats [3] = test: Galactose cataracts: degree of cataract marked 0 to 3 by ophthalmoscope; type: in vivo; settings: 20% galactose diet, 100 mg/kg d
Experimental: Rats, 14 days old, were kept in a cage of 11 with a mother for 3 days. From the 4th to the 9th day, the animals received the product to be tested or the reference product. At the end of pretreatment, the mothers were removed. Two out of the 11 animals were eliminated to obtain batches of homogenous weight. The selected rats were divided 3 by 3 into cages at random, and the diet containing 20% galactose was put in place. […] The degree of cataract was evaluated by a marking system from 0 to 3.
The marks given to the treated animals were compared with those of the control animals by the Mann and Whitney U test (D. Schwartz, "Statistical Methods for the Use of Physicians and Biologists," Ed. Flammarion, Paris, 1963).

IC50 (aldose reductase): 0.501 µM
SMILES: COC(=O)c1ccc(-c2oc3cc(NS(C)(=O)=O)ccc3c(=O)c2OS(C)(=O)=O)cc1 [COR 35 07, methyl 7-methanesulfonamido-3-methanesulfonyloxy-4'-flavonecarboxylate]
natruria multiplied by (increase in urinary excretion of sodium) (rats [1]): 2.6

SMILES: CCCc1c(-c2ccc(C(=O)O)cc2)oc2cc(NC(C)=O)ccc2c1=O [COR 19 91, 7-acetamido-3-propyl-4'-flavonecarboxylic acid]
IC50 (aldose reductase): 3.16 µM
LD0 (mice): more than 2000 mg/kg

IC50 (aldose reductase): 12.6 µM
SMILES: CC(=O)Nc1ccc2c(=O)cc(-c3ccc(C(=O)O)cc3)oc2c1 [COR 19 85, 7-acetamido-4'-flavonecarboxylic acid]

IC50 (aldose reductase): 3.98 µM
SMILES: CCCc1c(-c2ccc(C(=O)OC)cc2)oc2cc(NS(C)(=O)=O)ccc2c1=O [COR 19 99, methyl 7-methanesulfonamido-3-propyl-4'-flavonecarboxylate]

SMILES: CCCc1c(-c2ccc(C(=O)OC)cc2)oc2cc(NC(=O)CN3CCOCC3)ccc2c1=O [COR35 17, methyl 7-(morpholinoacetamido)-3-propyl-4'-flavonecarboxylate]
mortality (Toxicity in mice; oral administration of 1000 mg/kg): 10%

SMILES: CCCc1c(-c2ccc(C(=O)O)cc2)oc2cc(NS(C)(=O)=O)ccc2c1=O [COR 35 01, 7-methanesulfonamido-3-propyl-4'-flavonecarboxylic acid]
sorbitol level in the sciatic nerves (rats [2]; D-2 to D+3, control 0.983±0.334): 0.426 ± 0.171 mg/kg
inositol level in the sciatic nerves (rats [2]; D-2 to D+3, control 1.6555±0.372): 1.184 ± 0.340 mg/kg
IC50 (aldose reductase): 0.126 µM
mortality (mice; intraperitoneally, 250 mg/kg): did not cause any mortality
LD0 (mice): more than 2000 mg/kg
mortality (Toxicity in mice; ip, intraperitoneally, 500 mg/kg): 20%

IC50 (aldose reductase): 2 µM
SMILES: CCCc1c(-c2ccc(C(=O)O)cc2)oc2cc(S(=O)(=O)N(C)C)ccc2c1=O [COR 35 09, N,N-7-dimethylsulfamoyl-3-propyl-4'-flavonecarboxylic acid]
galactose cataract average index D + 1 (rats [3]; D+1, marks 0 to 3): 0.0
galactose cataract average index D + 2 (rats [3]; D+2, marks 0 to 3): 0.0
galactose cataract average index D + 3 (rats [3]; D+3, marks 0 to 3): 0.031
galactose cataract average index D + 4 (rats [3]; D+4, marks 0 to 3, S): 0.47
galactose cataract average index D + 5 (rats [3]; D+5, marks 0 to 3, S): 0.97
galactose cataract average index D + 6 (rats [3]; D+6, marks 0 to 3, S): 1.44
galactose cataract average index D + 7 (rats [3]; D+7, marks 0 to 3, S): 1.69
galactose cataract average index D + 8 (rats [3]; D+8, marks 0 to 3, S): 1.81
galactose cataract average index D + 9 (rats [3]; D+9, marks 0 to 3, S): 2.06
galactose cataract average index D + 10 (rats [3]; D+10, marks 0 to 3, S): 1.88
galactose cataract average index D + 11 (rats [3]; D+11, marks 0 to 3, S): 1.69
galactose cataract average index D + 12 (rats [3]; D+12, marks 0 to 3, S): 1.81
galactose cataract average index D + 13 (rats [3]; D+13, marks 0 to 3, S): 1.50

IC50 (aldose reductase): 6.31 µM
SMILES: CCCc1c(-c2ccc(C(=O)O)cc2)oc2cc(S(N)(=O)=O)ccc2c1=O [COR 35 22, 7-sulfamoyl-3-propyl-4'-flavonecarboxylic acid]

IC50 (aldose reductase): 1.26 µM
SMILES: CCCc1c(-c2ccc(C(=O)O)cc2)oc2cc(S(=O)(=O)NC)ccc2c1=O [COR 35 11, N-7-methylsulfamoyl-3-propyl-4'-flavonecarboxylic acid]

IC50 (aldose reductase): 7.94 µM
SMILES: CCc1c(-c2ccc(C(=O)O)cc2)oc2cc(NC(C)=O)ccc2c1=O [COR 19 93, 7-acetamido-3-ethyl-4'-flavonecarboxylic acid]

IC50 (aldose reductase): 7.08 µM
SMILES: CCCc1c(-c2ccc(C(=O)O)cc2)oc2cc(NC(=O)CN3CCOCC3)ccc2c1=O [COR 35 02, 7-morpholinoacetamido-3-propyl-4'-flavonecarboxylic acid hydrochloride]

IC50 (aldose reductase): 1.58 µM
SMILES: CCCc1c(-c2ccc(C(=O)O)cc2)oc2cc(S(=O)(=O)N(C)CCO)ccc2c1=O [COR 35 19, 7-(N-hydroxyethyl N-methylsulfamoyl)-3-propyl-4'-flavonecarboxylic acid]

SMILES: CC(=O)Nc1ccc2c(=O)c(OC(C)=O)c(-c3ccc(C(=O)O)cc3)oc2c1 [COR 19 94, 7-Acetamido-3-acetoxy-4'-flavonecarboxylic acid]
IC50 (aldose reductase): 6.31 µM
LD0 (mice): more than 2000 mg/kg
